Test results taken from the supplement of paper PMC10307832.

Assays:
Assay in all cases: relative viability (nuclei count vs DMSO), 5 days (fraction); higher = more cells survive
Motesanib + Pemetrexed = compound: CC1(C)CNc2cc(NC(=O)c3cccnc3NCc3ccncc3)ccc21 [Motesanib] + Nc1nc2[nH]cc(CCc3ccc(C(=O)N[C@@H](CCC(=O)O)C(=O)O)cc3)c2c(=O)[nH]1 [Pemetrexed] (partner 0.2 µM)
In short: (§1)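 Cells from lung cancer lines were seeded into 1536-well plates and, one day later, dosed by pin tool. Treatments were either a single drug or a fixed dose of an anchor drug with five library-drug doses (not always all listed) in √10 steps. After 5 days, nuclei were stained in a one-step fixation (final 0.05% Triton X-100, 1% formaldehyde, 1 ug/ml Hoechst) and counted on 4× images, and relative viability is the treated-to-vehicle nuclei ratio, as the median of duplicate plates.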

Motesanib + Navitoclax = compound: CC1(C)CNc2cc(NC(=O)c3cccnc3NCc3ccncc3)ccc21 [Motesanib] + CC1(C)CCC(c2ccc(Cl)cc2)=C(CN2CCN(c3ccc(C(=O)NS(=O)(=O)c4ccc(N[C@H](CCN5CCOCC5)CSc5ccccc5)c(S(=O)(=O)C(F)(F)F)c4)cc3)CC2)C1 [Navitoclax] (partner 0.5 µM)
In short: as §1

[1] = compound: C[C@@]1(C(=O)Nc2ccc(F)nc2)CCCN1c1nc(Nc2cc(C3CC3)n[nH]2)c2cccn2n1 + N=C(N)NC(=N)NCCc1ccccc1 [Phenformin] (partner 250 µM)
In short: as §1

Motesanib + Bortezomib = compound: CC1(C)CNc2cc(NC(=O)c3cccnc3NCc3ccncc3)ccc21 [Motesanib] + CC(C)C[C@H](NC(=O)[C@H](Cc1ccccc1)NC(=O)c1cnccn1)B(O)O [Bortezomib] (partner 0.002 µM)
In short: as §1

Row | Cell Line | relative viability (Motesanib + Pemetrexed; first compound 0.01 µM) | relative viability (Motesanib + Pemetrexed; first compound 0.03162 µM) | relative viability (Motesanib + Pemetrexed; first compound 0.1 µM) | relative viability (Motesanib + Pemetrexed; first compound 0.3162 µM) | relative viability (Motesanib + Pemetrexed; first compound 1 µM) | relative viability (Motesanib + Navitoclax; first compound 0.01 µM) | relative viability (Motesanib + Navitoclax; first compound 0.03162 µM) | relative viability (Motesanib + Navitoclax; first compound 0.1 µM) | relative viability (Motesanib + Navitoclax; first compound 0.3162 µM) | relative viability (Motesanib + Navitoclax; first compound 1 µM) | relative viability ([1]; first compound 0.04 µM) | relative viability ([1]; first compound 0.1265 µM) | relative viability ([1]; first compound 0.4 µM) | relative viability ([1]; first compound 1.265 µM) | relative viability (Motesanib + Bortezomib; first compound 0.01 µM) | relative viability (Motesanib + Bortezomib; first compound 0.03162 µM) | relative viability (Motesanib + Bortezomib; first compound 0.1 µM) | relative viability (Motesanib + Bortezomib; first compound 0.3162 µM) | relative viability (Motesanib + Bortezomib; first compound 1 µM)
1 | LCLC-97TM1 | 0.175 | 0.153 | 0.151 | 0.16 | 0.173 | 0.406 | 0.519 | 0.32 | 0.375 | 0.657 | 0.333 | 0.133 | 0.129 | 0.12 | 0.497 | 0.897 | 0.541 | 0.617 | 0.501
2 | LOU-NH91 | 0.357 | 0.37 | 0.373 | 0.406 | 0.382 | 0.774 | 0.638 | 0.741 | 0.703 | 0.769 | 0.673 | 0.646 | 0.596 | 0.608 | 0.468 | 0.507 | 0.486 | 0.52 | 0.581
3 | LU99A | 0.2 | 0.181 | 0.185 | 0.18 | 0.174 | 0.82 | 0.849 | 0.75 | 0.798 | 0.835 | 0.773 | 0.621 | 0.586 | 0.52 | 1.12 | 1.37 | 0.921 | 1.22 | 1.19
4 | LXF-289 | 0.704 | 0.845 | 0.898 | 0.896 | 0.57 | 0.923 | 0.957 | 0.931 | 0.955 | 0.951 | 0.528 | 0.472 | 0.484 | 0.48 | 0.985 | 0.976 | 1.03 | 1.13 | 1.03
5 | NCI-H23 | 0.645 | 0.624 | 0.518 | 0.447 | 0.545 | 0.901 | 0.552 |  | 0.779 | 0.826 | 0.703 | 0.648 | 0.533 | 0.704 | 1.06 | 0.766 |  | 1.21 | 1.16
6 | NCI-H322M | 0.681 | 0.627 | 0.556 | 0.691 | 0.605 | 1.19 | 1.32 | 1.33 | 1.2 | 1.23 | 0.686 | 0.561 | 0.531 | 0.499 | 1.32 | 1.24 | 1.39 | 1.36 | 1.23
7 | NCI-H441 | 0.243 | 0.234 | 0.238 | 0.259 | 0.196 | 0.706 | 0.729 | 0.627 | 0.641 | 0.796 | 0.405 | 0.35 | 0.369 | 0.264 | 0.542 | 0.47 | 0.434 | 0.644 | 0.583
8 | NCI-H460 | 0.0586 | 0.0647 | 0.0699 | 0.0738 | 0.0745 | 1.15 | 1.05 | 1.09 | 1.14 | 1.24 | 0.53 | 0.436 | 0.36 | 0.239 | 1.09 | 1.18 | 1.08 | 1.25 | 1.1
9 | NCI-H520 | 0.577 | 0.594 | 0.51 | 0.586 | 0.643 | 1.12 | 0.982 | 1.1 | 1.03 | 1.04 | 0.819 | 0.301 | 0.487 | 0.416 | 0.482 | 0.747 | 0.432 | 0.653 | 0.693
10 | NCI-H596 | 0.509 | 0.503 | 0.444 | 0.306 | 0.358 | 0.962 | 0.893 | 0.9 | 0.879 | 1.1 | 0.649 | 0.69 | 0.738 | 0.763 | 0.995 | 0.872 |  | 1.18 | 0.995
11 | NCI-H647 | 0.178 | 0.175 | 0.16 | 0.143 | 0.165 | 1.26 | 1.49 | 1.28 | 1.19 | 1.18 | 0.651 | 0.488 | 0.346 | 0.458 | 0.984 | 1.01 | 0.974 | 1.06 | 0.883
12 | NCI-H838 | 0.23 | 0.248 | 0.26 | 0.231 | 0.239 | 1.25 | 1.21 | 1.09 | 1.25 | 1.14 | 0.563 | 0.449 | 0.308 | 0.37 | 0.887 | 0.957 | 0.758 | 0.965 | 0.891
13 | NCI-H1355 | 1.06 | 1.04 | 1.05 | 1.07 | 0.991 | 0.994 | 0.946 | 0.882 | 1.06 | 0.957 | 0.418 | 0.415 | 0.347 | 0.39 | 1.2 | 1.33 | 1.22 | 1.35 | 1.18
14 | NCI-H1437 | 0.297 | 0.286 | 0.318 | 0.32 | 0.297 | 1.09 | 1.05 | 1.07 | 1.11 | 1.13 | 0.257 | 0.253 | 0.214 | 0.171 | 0.368 | 0.525 | 0.434 | 0.626 | 0.615
15 | NCI-H1650 | 0.357 | 0.367 | 0.33 | 0.349 | 0.425 | 1.19 |  | 1.17 | 1.44 | 1.23 | 0.411 | 0.387 | 0.376 | 0.193 | 0.204 |  | 0.191 | 0.185 | 0.207
16 | NCI-H1651 | 0.544 | 0.618 | 0.519 | 0.531 | 0.585 | 1.08 | 0.946 | 1.09 | 0.994 | 1 | 0.283 | 0.287 | 0.269 | 0.283 | 0.914 | 0.883 | 0.932 | 0.873 | 0.929
17 | NCI-H1666 | 0.954 | 0.831 | 0.816 | 0.868 | 0.824 | 0.947 | 0.979 | 0.99 | 1.05 | 0.88 | 0.554 | 0.529 | 0.635 | 0.487 | 0.845 | 0.766 | 0.816 | 0.77 | 0.862
